Laboratory results taken from patent publication EP1180513A1, “CYCLIC AMIDE COMPOUNDS, PROCESS FOR THE PREPARATION OF THE SAME AND USES THEREOF” (Takeda Chemical Industries, Ltd., priority 1999, dated 2000).
Where a name gives a salt, the structure may show the parent alone.

Target: T1, human CCR5 (Homo sapiens, UniProt P51681)
T1 construct: expressed in transfected cells
Experiment: CCR5 binding inhibition: [125I]-RANTES binding to CHO/CCR5 cells
Conditions: Test Compound 1 µM, 100 pM [125I]-RANTES as ligand, room temperature, 40 minutes, read-out: Inhibitory rate (%) at 1.0 µM
Method: CHO-K1 cells were grown in 750ml of tissue culture flask (Becton Dickinson) using Ham's F12 medium (Nihon Pharmaceutical) containing 10% fetal calf serum (Life Tech Oriental) and took off with 0.5 g/L trypsin-0.2 g/L EDTA (Life Tech Oriental). The cells were washed with PBS (Life Tech Oriental), centrifuged (1000 rpm, 5 minutes), and suspended in PBS. With using Gene Pulser (Bio-Rad Laboratories), DNA was introduced into the cells under the conditions shown below. That is, to the cuvette of 0.4 cm gap were added 8×10^6 cells and 10 µg of plasmid pCKR5 for expression of human CCR5, and electroporation was carried out under 0.25 kV of voltage and 960 µF of capacitance. The cells were transferred into Ham's F12 medium containing 10% fetal calf serum, and cultivated for 24 hours. The cells were again took off and centrifuged, and suspended in Ham's F12 medium containing 10% fetal calf serum and 500 µg/ml of geneticin (Life Tech Oriental). The suspension was diluted to give 10^4 cells/ml of the suspension, which was inoculated on 96 well plate (Becton Dickinson) to give resistant cells. The resulting geneticin resistant cells were cultivated in 96 well plate (Becton Dickinson), and cells expressing CCR5 were selected from the geneticin resistant cells. That is, in assay buffer (Ham's F12 medium containing 0.5% BSA and 20 mM HEPES (Wako Pure Chemical, pH 7.2)) to which was added 200 pM of [^125I]-RANTES (Amersham) as ligand, binding reaction was carried out at room temperature for 40 minutes, and the buffer was washed with cooled PBS. To the buffer was added 50 µl/well of 1M NaOH, and the mixture was stirred. Radioactivity was determined with γ-counter to select CHO/CCR5 cells which specifically bind to the ligand.
The CHO/CCR5 were inoculated on 96 well microplate (5×10^4 cells/well) and cultivated for 24 hours. The medium was removed by means of suction, and to each well was added assay buffer containing Test Compound (1 µM) and then 100 pM of [^125I]-RANTES (Amersham) as ligand. Binding assay was carried out at room temperature for 40 minutes, and assay buffer was removed by means of suction. Each well was washed twice with cooled PBS, and 200 µl of Microscint-20 (Packard Instrument, Inc.) was added to each well. Radio-activity was determined with Top-Count (Packard Instrument, Inc.).
According to the method described above, inhibition rate of Test Compound to CCR5 binding.

T1 sequence (P51681 whole entry): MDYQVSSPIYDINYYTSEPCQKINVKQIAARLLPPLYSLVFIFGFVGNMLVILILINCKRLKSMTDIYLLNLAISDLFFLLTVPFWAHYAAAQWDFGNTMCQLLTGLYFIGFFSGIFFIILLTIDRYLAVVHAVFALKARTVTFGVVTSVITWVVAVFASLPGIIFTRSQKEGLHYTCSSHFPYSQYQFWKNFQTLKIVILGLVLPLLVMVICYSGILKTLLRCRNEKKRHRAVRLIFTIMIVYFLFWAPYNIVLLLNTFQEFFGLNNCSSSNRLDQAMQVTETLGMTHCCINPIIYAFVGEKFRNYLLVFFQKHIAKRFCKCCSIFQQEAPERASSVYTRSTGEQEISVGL

Compound | inhibition at 1 µM [%]
CN1CC(C(=O)N(CCCN2CCC(Cc3ccc(F)cc3)CC2)c2ccc(Cl)c(Cl)c2)CC1=O (stereo not drawn) [Example 84, N-(3,4-dichlorophenyl)-N-{3-[4-(4-fluorobenzyl)-1-piperidinyl]propyl}-1-methyl-5-oxo-3-pyrrolidinecarboxamide hydrochloride] | 92
O=C1CC(C(=O)N(CCCN2CCC(Cc3ccccc3)CC2)c2ccccc2)CN1c1ccccc1 (stereo not drawn) [Example 52, N-[3-(4-benzyl-1-piperidinyl)propyl]-5-oxo-N,1-diphenyl-3-pyrrolidinecarboxamide] | 76
O=C1CC(C(=O)N(CCCN2CCC(Cc3ccccc3)CC2)c2ccccc2)CN1CC(F)(F)F (stereo not drawn) [Example 93, N-[3-(4-benzyl-1-piperidinyl)propyl]-5-oxo-N-phenyl-1-(2,2,2-trifluoroethyl)-3-pyrrolidinecarboxamide] | 90
CN1CC(C(=O)N(CCCN2CCC(C(=O)c3ccc(F)cc3)CC2)c2ccccc2)CC1=O (stereo not drawn) [Example 13, N-{3-[4-(4-fluorobenzoyl) -1-piperidinyl]propyl}-1-methyl-5-oxo-N-phenyl-3-pyrrolidinecarboxamide] | 40
CN1CC(C(=O)N(CCCCN2CCC(C(=O)c3ccc(F)cc3)CC2)c2ccccc2)CC1=O (stereo not drawn) [Example 17, N-{4-[4-(4-fluorobenzoyl)-1-piperidinyl]butyl}-1-methyl-5-oxo-N-phenyl-3-pyrrolidinecarboxamide] | 22
O=C1CC(C(=O)N(CCCN2CCC(Cc3ccccc3)CC2)c2ccccc2)CN1Cc1ccccc1Cl (stereo not drawn) [Example 76, N-[3-(4-benzyl-1-piperidinyl)propyl]-1-(2-chlorobenzyl)-5-oxo-N-phenyl-3-pyrrolidinecarboxamide] | 91
CN1CC(C(=O)N(CCCN2CCC(Cc3ccccc3)CC2)c2cccc(Cl)c2)CC1=O (stereo not drawn) [Example 38, N-[3-(4-benzyl-1-piperidinyl)propyl]-N-(3-chlorophenyl)-1-methyl-5-oxo-3-pyrrolidinecarboxamide hydrochloride] | 82
O=C1CC(C(=O)N(CCCN2CCC(Cc3ccccc3)CC2)c2ccccc2)CN1Cc1ccccc1 (stereo not drawn) [Example 51, 1-benzyl-N-[3-(4-benzyl-1-piperidinyl)propyl]-5-oxo-N-phenyl-3-pyrrolidinecarboxamide] | 92
CN1CC(C(=O)N(CCCN2CCC3(C=Cc4ccccc43)CC2)c2ccccc2)CC1=O (stereo not drawn) [Example 8, N-[3-(indene-1-spiro-4'-piperidin-1'-yl)propyl]-1-methyl-5-oxo-N-phenyl-3-pyrrolidinecarboxamide fumarate] | 24
CN1CC(C(=O)N(CCCN2CCC(Cc3ccccc3)CC2)c2ccc(Cl)c(Cl)c2)CC1=O (stereo not drawn) [Example 23, N-[3-(4-benzyl-1-piperidinyl)propyl]-N-(3,4-dichlorophenyl)-1-methyl-5-oxo-3-pyrrolidinecarboxamide hydrochloride] | 95
CN1CC(C(=O)N(CCCN2CCC(Cc3ccccc3)CC2)c2ccccc2)CC1=O (stereo not drawn) [Example 1, N-[3-(4-benzyl-1-piperidinyl)propyl]-1-methyl-5-oxo-N-phenyl-3-pyrrolidinecarboxamide hydrochloride] | 57
CN1CC(C(=O)N(CCCN2CCC(Cc3ccccc3)CC2)Cc2ccccc2)CC1=O (stereo not drawn) [Example 62, N-benzyl-N-[3-(4-benzyl-1-piperidinyl)propyl]-1-methyl-5-oxo-3-pyrrolidinecarboxamide] | 67
